US7838498B2, “Benzylic glycoside derivatives and methods of use” (Theracos, Inc., priority 2007, dated 2010)

Experiments:
human SGLT2 = biological target: T1, human SGLT2 (Homo sapiens, UniProt P31639); experiment: Methyl-α-D-[U-14C]glucopyranoside uptake assay, cells stably expressing human SGLT2; type: cell-based; conditions: HEK293.ETN cells expressing human SGLT2, 1.5 h incubation
T1 construct: A full-length cDNA clone expressing human SGLT2 (GenScript Corporation) was subcloned
T1 sequence (P31639 1-672): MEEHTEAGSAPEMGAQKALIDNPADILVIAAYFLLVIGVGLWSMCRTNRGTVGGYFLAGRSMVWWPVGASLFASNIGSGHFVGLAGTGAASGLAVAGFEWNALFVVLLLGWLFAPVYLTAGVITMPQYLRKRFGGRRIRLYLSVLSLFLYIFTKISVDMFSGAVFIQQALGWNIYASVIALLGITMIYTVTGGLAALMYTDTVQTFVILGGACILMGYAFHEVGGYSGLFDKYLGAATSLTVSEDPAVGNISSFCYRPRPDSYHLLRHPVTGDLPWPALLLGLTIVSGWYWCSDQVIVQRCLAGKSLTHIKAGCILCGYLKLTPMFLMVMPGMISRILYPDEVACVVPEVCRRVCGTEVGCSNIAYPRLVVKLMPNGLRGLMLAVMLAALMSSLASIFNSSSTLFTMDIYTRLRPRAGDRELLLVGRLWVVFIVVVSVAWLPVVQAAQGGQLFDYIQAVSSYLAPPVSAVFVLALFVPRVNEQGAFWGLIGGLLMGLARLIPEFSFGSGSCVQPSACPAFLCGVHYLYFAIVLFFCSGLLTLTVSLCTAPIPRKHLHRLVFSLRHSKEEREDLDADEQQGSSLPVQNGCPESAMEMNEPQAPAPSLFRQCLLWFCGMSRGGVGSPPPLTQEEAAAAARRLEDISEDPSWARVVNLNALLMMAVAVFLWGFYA
From the text: A full-length cDNA clone expressing human SGLT2 (GenScript Corporation) was subcloned into […] and Not I sites of pEAK15 expression vector. Clones harboring the cDNA inserts were identified by restriction analysis.
Plasmid containing human SGLT2 was linearized with Nsi I and purified by agarose gel electrophoresis. Using Lipofectamine 2000 Transfection Reagent (Invitrogen Corporation), DNA was transfected into HEK293.ETN cells and cultured in Dulbecco's Modified Eagle Medium (DMEM) containing 10% fetal bovine serum (FBS) at 37° C. under 5% CO2 for 24 h. Transfectants were selected in the same growth medium supplemented with puromycin (Invitrogen Corporation) for two weeks. Puromycin-resistant cells were recovered and seeded on a fresh 96-well plate (single cell per well) and cultured in the presence of puromycin until cells became confluent. Puromycin-resistant clones were evaluated for SGLT2 activity in the methyl-α-D-[U-^14C]glucopyranoside uptake assay described below.
(§1) Cells expressing SGLT1 or SGLT2 were seeded on 96-well ScintiPlate scintillating plates (PerkinElmer, Inc.) in DMEM containing 10% FBS (1×10^5 cells per well in 100 μL medium) incubated at 37° C. under 5% CO2 for 48 h prior to the assay. Cells were washed twice with 150 μL of either sodium buffer (137 mM NaCl, 5.4 mM KCl, 2.8 mM CaCl2, 1.2 mM MgCl2, 10 mM tris(hydroxymethyl)aminomethane/N2-hydroxyethylpiperazine-N′-ethanesulfonic acid [Tris/Hepes], pH 7.2) or sodium-free buffer (137 mM N-methyl-glucamine, 5.4 mM KCl, 2.8 mM CaCl2, 1.2 mM MgCl2, 10 mM Tris/Hepes, pH 7.2). Test compound in 50 μL each of sodium or sodium-free buffer containing 40 μCi/L methyl-α-D-[U-^14C]glucopyranoside (Amersham Biosciences/GE Healthcare), either with (symbols in parentheses) or without (symbols without parentheses) 25% human serum, was added per well of a 96-well plate and incubated at 37° C. with shaking for either 2 h (SGLT1 assay) or 1.5 h (SGLT2 assay). Cells were washed twice with 150 μL of wash buffer (137 mM N-methylglucamine, 10 mM Tris/Hepes, pH 7.2) and methyl-α-D-[U-^14C]glucopyranoside uptake was quantitated using a TopCount scintillation counter (PerkinElmer, Inc.). Sodium-dependent glucopyranoside uptake was measured by subtracting the values obtained with sodium-free buffer from those obtained using sodium buffer (average of triplicate determinations).

human SGLT1 = biological target: T2, human SGLT1 (Homo sapiens, UniProt P13866); experiment: Methyl-α-D-[U-14C]glucopyranoside uptake assay, COS-7 cells expressing human SGLT1; type: cell-based; conditions: COS-7 cells expressing human SGLT1, 2 h incubation
T2 construct: Full-length human SGLT1 cDNA on pDream2.1 expression vector was obtained from GenScript Corporation; host or cells: COS-7 cells (American Type Culture Collection)
T2 sequence (P13866 1-664): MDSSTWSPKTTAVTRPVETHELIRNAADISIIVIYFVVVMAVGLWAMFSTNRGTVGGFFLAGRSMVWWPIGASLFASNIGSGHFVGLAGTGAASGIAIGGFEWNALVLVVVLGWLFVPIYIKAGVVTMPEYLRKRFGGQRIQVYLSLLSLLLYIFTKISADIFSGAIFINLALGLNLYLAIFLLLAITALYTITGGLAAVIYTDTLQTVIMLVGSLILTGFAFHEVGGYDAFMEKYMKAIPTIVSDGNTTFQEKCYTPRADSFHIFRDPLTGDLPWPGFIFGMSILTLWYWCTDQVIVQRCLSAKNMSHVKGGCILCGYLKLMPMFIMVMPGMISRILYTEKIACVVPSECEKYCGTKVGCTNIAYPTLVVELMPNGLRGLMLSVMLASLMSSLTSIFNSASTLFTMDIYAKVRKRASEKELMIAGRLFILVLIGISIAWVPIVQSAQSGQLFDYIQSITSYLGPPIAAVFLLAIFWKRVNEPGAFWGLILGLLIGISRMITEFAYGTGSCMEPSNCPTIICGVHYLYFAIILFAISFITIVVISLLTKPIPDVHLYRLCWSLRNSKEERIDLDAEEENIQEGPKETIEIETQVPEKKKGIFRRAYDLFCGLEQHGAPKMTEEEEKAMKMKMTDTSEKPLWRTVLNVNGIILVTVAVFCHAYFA
Protocol: Full-length human SGLT1 cDNA on pDream2.1 expression vector was obtained from GenScript Corporation and propagated in Escherichia coli strain DH5α using Luria-Bertani (LB) medium containing ampicillin. Plasmid DNA was isolated using the QIAGEN Plasmid Midi Kit (QIAGEN Inc.). […] Transfected cells were stored in DMEM containing 10% dimethyl sulfoxide (DMSO) at −80° C.
as §1

[1] = without human serum (symbols without parentheses)
[2] = with 25% human serum (symbols in parentheses)

| IC50 (human SGLT2; [1]) | IC50 (human SGLT1; [1]) | IC50 (human SGLT2; [2]) | IC50 (human SGLT1; [2]) | Structure (SMILES) |
| --- | --- | --- | --- | --- |
| < 1000 nM | > 10000 nM | – | – | CCc1ccc(Cc2cc([C@@H]3O[C@H](CO)[C@@H](O)[C@H](O)[C@H]3O)c(COCC(C)(F)F)cc2Cl)cc1 [Compound CB, (2S,3R,4R,5S,6R)-2-(4-chloro-2-((2,2-difluoropropoxy)methyl)-5-(4-ethylbenzyl)phenyl)-6-(hydroxymethyl)tetrahydro-2H-pyran-3,4,5-triol] |
| < 1000 nM | > 10000 nM | – | – | CCc1ccc(Cc2cc([C@@H]3O[C@H](CO)[C@@H](O)[C@H](O)[C@H]3O)c(COCC(O)CO)cc2Cl)cc1 (stereo partly drawn) [Compound L, (2S,3R,4R,5S,6R)-2-(4-chloro-2-((2,3-dihydroxypropoxy)methyl)-5-(4-ethylbenzyl)phenyl)-6-(hydroxymethyl)tetrahydro-2H-pyran-3,4,5-triol] |
| < 1000 nM | > 10000 nM | – | – | C#CCOCCc1cc(Cl)c(Cc2ccc(CC)cc2)cc1[C@@H]1O[C@H](CO)[C@@H](O)[C@H](O)[C@H]1O [Compound AM, (2S,3R,4R,5S,6R)-2-(4-chloro-5-(4-ethylbenzyl)-2-(2-(prop-2-ynyloxy)ethyl)phenyl)-6-(hydroxymethyl)tetrahydro-2H-pyran-3,4,5-triol] |
| < 1000 nM | 1000 to 10000 nM | – | – | CC#CCOCCc1cc(Cl)c(Cc2ccc(CC)cc2)cc1[C@@H]1O[C@H](CO)[C@@H](O)[C@H](O)[C@H]1O [Compound AN, (2S,3R,4R,5S,6R)-2-(2-(2-(but-2-ynyloxy)ethyl)-4-chloro-5-(4-ethylbenzyl)phenyl)-6-(hydroxymethyl)tetrahydro-2H-pyran-3,4,5-triol] |
| < 1000 nM | > 10000 nM | – | – | C=CCOCCOc1cc(Cl)c(Cc2ccc(CC)cc2)cc1[C@@H]1O[C@H](CO)[C@@H](O)[C@H](O)[C@H]1O [Compound AW, (2S,3R,4R,5S,6R)-2-(2-(2-(allyloxy)ethoxy)-4-chloro-5-(4-ethylbenzyl)phenyl)-6-(hydroxymethyl)tetrahydro-2H-pyran-3,4,5-triol] |
| – | – | < 1000 nM | > 10000 nM | CC#CCOCCOc1cc(Cl)c(Cc2ccc(CC)cc2)cc1[C@@H]1O[C@H](CO)[C@@H](O)[C@H](O)[C@H]1O [Compound BF, (2S,3R,4R,5S,6R)-2-(2-(2-(but-2-ynyloxy)ethoxy)-4-chloro-5-(4-ethylbenzyl)phenyl)-6-(hydroxymethyl)tetrahydro-2H-pyran-3,4,5-triol] |
| – | – | < 1000 nM | > 10000 nM | CC#CCOCc1cc(Cl)c(Cc2ccc(O)cc2)cc1[C@@H]1O[C@H](CO)[C@@H](O)[C@H](O)[C@H]1O [Compound BC, (2S,3R,4R,5S,6R)-2-(2-((but-2-ynyloxy)methyl)-4-chloro-5-(4-hydroxybenzyl)phenyl)-6-(hydroxymethyl)tetrahydro-2H-pyran-3,4,5-triol] |
| < 1000 nM | > 10000 nM | – | – | C=CCOCc1cc(Cl)c(Cc2ccc(CC)cc2)cc1[C@@H]1O[C@H](CO)[C@@H](O)[C@H](O)[C@H]1O [Compound I, (2S,3R,4R,5S,6R)-2-(2-(allyloxymethyl)-4-chloro-5-(4-ethylbenzyl)phenyl)-6-(hydroxymethyl)tetrahydro-2H-pyran-3,4,5-triol] |
| – | – | < 1000 nM | > 10000 nM | C#CCOCc1cc(Cl)c(Cc2ccc(OCC)cc2)cc1[C@@H]1O[C@H](CO)[C@@H](O)[C@H](O)[C@H]1O [Compound CC, (2S,3R,4R,5S,6R)-2-(4-chloro-5-(4-ethoxybenzyl)-2-((prop-2-ynyloxy)methyl)phenyl)-6-(hydroxymethyl)tetrahydro-2H-pyran-3,4,5-triol] |
| – | – | < 1000 nM | > 10000 nM | CCc1ccc(Cc2cc([C@@H]3O[C@H](CO)[C@@H](O)[C@H](O)[C@H]3O)c(OCCOCC(F)(F)F)cc2Cl)cc1 [Compound BS, (2S,3R,4R,5S,6R)-2-(4-chloro-5-(4-ethylbenzyl)-2-(2-(2,2,2-trifluoroethoxy)ethoxy)phenyl)-6-(hydroxymethyl)tetrahydro-2H-pyran-3,4,5-triol] |
| – | – | < 1000 nM | > 10000 nM | CCc1ccc(Cc2cc([C@@H]3O[C@H](CO)[C@@H](O)[C@H](O)[C@H]3O)c(OCCOC(F)(F)F)cc2Cl)cc1 [Compound BQ, (2S,3R,4R,5S,6R)-2-(4-chloro-5-(4-ethylbenzyl)-2-(2-(trifluoromethoxy)ethoxy)phenyl)-6-(hydroxymethyl)tetrahydro-2H-pyran-3,4,5-triol] |
| – | – | < 1000 nM | > 10000 nM | CC#CCOCCCc1cc(Cl)c(Cc2ccc(OCC)cc2)cc1[C@@H]1O[C@H](CO)[C@@H](O)[C@H](O)[C@H]1O [Compound BO, (2S,3R,4R,5S,6R)-2-(2-(3-(but-2-ynyloxy)propyl)-4-chloro-5-(4-ethoxybenzyl)phenyl)-6-(hydroxymethyl)tetrahydro-2H-pyran-3,4,5-triol] |
| < 1000 nM | > 10000 nM | – | – | C=CCOCCc1cc(Cl)c(Cc2ccc(CC)cc2)cc1[C@@H]1O[C@H](CO)[C@@H](O)[C@H](O)[C@H]1O [Compound AD, (2S,3R,4R,5S,6R)-2-(2-(2-(allyloxy)ethyl)-4-chloro-5-(4-ethylbenzyl)phenyl)-6-(hydroxymethyl)tetrahydro-2H-pyran-3,4,5-triol] |
| – | – | < 1000 nM | > 10000 nM | CC#CCOCc1cc(Cl)c(Cc2ccc(CC)cc2)cc1[C@@H]1O[C@H](CO)[C@@H](O)[C@H](O)[C@H]1O [Compound AX, (2S,3R,4R,5S,6R)-2-(2-((but-2-ynyloxy)methyl)-4-chloro-5-(4-ethylbenzyl)phenyl)-6-(hydroxymethyl)tetrahydro-2H-pyran-3,4,5-triol] |
| < 1000 nM | 1000 to 10000 nM | – | – | CCc1ccc(Cc2cc([C@@H]3O[C@H](CO)[C@@H](O)[C@H](O)[C@H]3O)c(COCCO)cc2Cl)cc1 [Compound O, (2S,3R,4R,5S,6R)-2-(4-chloro-5-(4-ethylbenzyl)-2-((2-hydroxyethoxy)methyl)phenyl)-6-(hydroxymethyl)tetrahydro-2H-pyran-3,4,5-triol] |
